± gives the expanded uncertainty stated by the source.
Experiment: mn = molality of the nth substance listed, in mol/kg
Settings: 298.15 K; for surface tension liquid-gas: Ring tensiometer; for electrical conductivity: 100 kPa, Liquid, Alternating current cell with electrodes

Compound: CCCCCCCCCCCCCCCCOCC(O)C[N+](C)(C)CCCCCCCC.[Br-] (stereo not given) + O
- surface tension liquid-gas (m1 = 2.04e-06): 69.09 ± 2.2 mN/m
- surface tension liquid-gas (m1 = 2.63e-06): 68.55 ± 2.1 mN/m
- surface tension liquid-gas (m1 = 3.55e-06): 61.94 ± 2.1 mN/m
- surface tension liquid-gas (m1 = 3.8e-06): 60.95 ± 2.1 mN/m
- surface tension liquid-gas (m1 = 4.07e-06): 55.95 ± 2.1 mN/m
- surface tension liquid-gas (m1 = 4.37e-06): 48.71 ± 2.1 mN/m
- surface tension liquid-gas (m1 = 5.89e-06): 44.65 ± 2.1 mN/m
- surface tension liquid-gas (m1 = 7.94e-06): 41.6 ± 2.1 mN/m
- surface tension liquid-gas (m1 = 1.023e-05): 37.64 ± 2.1 mN/m
- electrical conductivity (m1 = 0.0067): 5.6e-05 ± 6e-06 S/m
- electrical conductivity (m1 = 0.0076): 5.8e-05 ± 6e-06 S/m
- electrical conductivity (m1 = 0.0086): 6.4e-05 ± 8e-06 S/m
- electrical conductivity (m1 = 0.0095): 7.4e-05 ± 8e-06 S/m
- electrical conductivity (m1 = 0.0105): 7.7e-05 ± 8e-06 S/m
- electrical conductivity (m1 = 0.0114): 7.8e-05 ± 9e-06 S/m
- electrical conductivity (m1 = 0.0124): 9.3e-05 ± 1.1e-05 S/m
- electrical conductivity (m1 = 0.0133): 9.6e-05 ± 1.2e-05 S/m
- electrical conductivity (m1 = 0.0143): 0.000114 ± 1.2e-05 S/m
- electrical conductivity (m1 = 0.0152): 0.000111 ± 1.1e-05 S/m
- electrical conductivity (m1 = 0.0162): 0.000121 ± 1.4e-05 S/m
- electrical conductivity (m1 = 0.0171): 0.000132 ± 1.5e-05 S/m
- electrical conductivity (m1 = 0.0181): 0.000144 ± 1.5e-05 S/m
- electrical conductivity (m1 = 0.019): 0.000147 ± 1.6e-05 S/m
- electrical conductivity (m1 = 0.0209): 0.000168 ± 1.8e-05 S/m
- electrical conductivity (m1 = 0.0219): 0.000176 ± 1.9e-05 S/m
- electrical conductivity (m1 = 0.0229): 0.00019 ± 2.1e-05 S/m
- electrical conductivity (m1 = 0.0238): 0.000201 ± 2.1e-05 S/m
- electrical conductivity (m1 = 0.0248): 0.000212 ± 2.2e-05 S/m

Compound: CCCCCCCCCCCCCCOCC(O)C[N+](C)(C)CCCCCCCC.[Br-] (stereo not given) + O
- surface tension liquid-gas (m1 = 3.388e-06): 60.85 ± 2.1 mN/m
- surface tension liquid-gas (m1 = 4.169e-06): 59.07 ± 2.1 mN/m
- surface tension liquid-gas (m1 = 5.012e-06): 58.67 ± 2.1 mN/m
- surface tension liquid-gas (m1 = 6.761e-06): 54.53 ± 2.1 mN/m
- surface tension liquid-gas (m1 = 8.511e-06): 51.91 ± 2.1 mN/m
- surface tension liquid-gas (m1 = 1.175e-05): 47.9 ± 2.1 mN/m
- surface tension liquid-gas (m1 = 1.514e-05): 44.86 ± 2.1 mN/m
- surface tension liquid-gas (m1 = 1.995e-05): 41.5 ± 2.1 mN/m
- surface tension liquid-gas (m1 = 2.512e-05): 39.09 ± 2.1 mN/m
- surface tension liquid-gas (m1 = 3.388e-05): 36.16 ± 2.1 mN/m
- surface tension liquid-gas (m1 = 4.571e-05): 33.74 ± 2.1 mN/m
- electrical conductivity (m1 = 0.009): 0.000161 ± 1.9e-05 S/m
- electrical conductivity (m1 = 0.0144): 0.000255 ± 2.7e-05 S/m
- electrical conductivity (m1 = 0.0198): 0.000343 ± 3.6e-05 S/m
- electrical conductivity (m1 = 0.0252): 0.000427 ± 4.4e-05 S/m
- electrical conductivity (m1 = 0.0306): 0.000521 ± 5.3e-05 S/m
- electrical conductivity (m1 = 0.036): 0.000636 ± 6.4e-05 S/m
- electrical conductivity (m1 = 0.0414): 0.000683 ± 6.9e-05 S/m

Compound: CCCCCCCCCCCCCC[N+](C)(C)CC(O)COCCCCCCCCCC.[Br-] (stereo not given) + O
- surface tension liquid-gas (m1 = 2.4e-07): 70.44 ± 2.2 mN/m
- surface tension liquid-gas (m1 = 2.82e-07): 69.87 ± 2.2 mN/m
- surface tension liquid-gas (m1 = 4.17e-07): 69.41 ± 2.2 mN/m
- surface tension liquid-gas (m1 = 5.62e-07): 65.68 ± 2.1 mN/m
- surface tension liquid-gas (m1 = 7.24e-07): 57.18 ± 2.1 mN/m
- surface tension liquid-gas (m1 = 8.51e-07): 53.77 ± 2.1 mN/m
- surface tension liquid-gas (m1 = 1.148e-06): 48.14 ± 2.1 mN/m
- surface tension liquid-gas (m1 = 1.413e-06): 44.06 ± 2.1 mN/m
- surface tension liquid-gas (m1 = 1.698e-06): 40.95 ± 2.1 mN/m
- surface tension liquid-gas (m1 = 2.291e-06): 35.65 ± 2.1 mN/m
- surface tension liquid-gas (m1 = 2.818e-06): 33.63 ± 2.1 mN/m
- electrical conductivity (m1 = 0.0013): 2.8e-05 ± 9e-06 S/m
- electrical conductivity (m1 = 0.0027): 4.9e-05 ± 7e-06 S/m
- electrical conductivity (m1 = 0.004): 4.9e-05 ± 5e-06 S/m
- electrical conductivity (m1 = 0.0053): 5.8e-05 ± 9e-06 S/m
- electrical conductivity (m1 = 0.0067): 8e-05 ± 1.3e-05 S/m
- electrical conductivity (m1 = 0.008): 0.000102 ± 1.2e-05 S/m
- electrical conductivity (m1 = 0.0093): 0.000111 ± 1.2e-05 S/m
- electrical conductivity (m1 = 0.0107): 0.000117 ± 1.5e-05 S/m
- electrical conductivity (m1 = 0.012): 0.000157 ± 2e-05 S/m
- electrical conductivity (m1 = 0.0133): 0.00017 ± 1.7e-05 S/m
- electrical conductivity (m1 = 0.0147): 0.000166 ± 1.8e-05 S/m
- electrical conductivity (m1 = 0.016): 0.000201 ± 2.2e-05 S/m
- electrical conductivity (m1 = 0.0174): 0.000211 ± 2.3e-05 S/m
- electrical conductivity (m1 = 0.0187): 0.000243 ± 2.7e-05 S/m
- electrical conductivity (m1 = 0.02): 0.000261 ± 2.8e-05 S/m
- electrical conductivity (m1 = 0.0214): 0.000284 ± 3e-05 S/m
- electrical conductivity (m1 = 0.0227): 0.000297 ± 3.1e-05 S/m
- electrical conductivity (m1 = 0.024): 0.000319 ± 3.3e-05 S/m
- electrical conductivity (m1 = 0.0254): 0.00033 ± 3.4e-05 S/m
- electrical conductivity (m1 = 0.0267): 0.000361 ± 3.8e-05 S/m
- electrical conductivity (m1 = 0.028): 0.000376 ± 3.8e-05 S/m

Compound: CCCCCCCCCCCCOCC(O)C[N+](C)(C)CCCCCCCC.[Br-] (stereo not given) + O
- surface tension liquid-gas (m1 = 1.047e-05): 64.92 ± 2.1 mN/m
- surface tension liquid-gas (m1 = 1.738e-05): 60.07 ± 2.1 mN/m
- surface tension liquid-gas (m1 = 2.089e-05): 57.65 ± 2.1 mN/m
- surface tension liquid-gas (m1 = 2.818e-05): 53.97 ± 2.1 mN/m
- surface tension liquid-gas (m1 = 3.548e-05): 52.04 ± 2.1 mN/m
- surface tension liquid-gas (m1 = 4.898e-05): 48.46 ± 2.1 mN/m
- surface tension liquid-gas (m1 = 6.31e-05): 46.1 ± 2.1 mN/m
- surface tension liquid-gas (m1 = 8.511e-05): 42.5 ± 2.1 mN/m
- surface tension liquid-gas (m1 = 0.0001047): 39.79 ± 2.1 mN/m
- surface tension liquid-gas (m1 = 0.0001479): 36.43 ± 2.1 mN/m
- surface tension liquid-gas (m1 = 0.0001905): 33.42 ± 2 mN/m
- electrical conductivity (m1 = 0.014): 0.00023 ± 2.3e-05 S/m
- electrical conductivity (m1 = 0.028): 0.00034 ± 3.5e-05 S/m
- electrical conductivity (m1 = 0.0561): 0.00065 ± 6.5e-05 S/m
- electrical conductivity (m1 = 0.0841): 0.00105 ± 0.00011 S/m
- electrical conductivity (m1 = 0.1121): 0.00117 ± 0.00012 S/m
- electrical conductivity (m1 = 0.1402): 0.00141 ± 0.00014 S/m
- electrical conductivity (m1 = 0.1682): 0.00173 ± 0.00017 S/m
- electrical conductivity (m1 = 0.1962): 0.00195 ± 0.00019 S/m
- electrical conductivity (m1 = 0.2243): 0.00226 ± 0.00023 S/m

Compound: CCCCCCCCCCOCC(O)C[N+](C)(C)CCCCCCCC.[Br-] (stereo not given) + O
- surface tension liquid-gas (m1 = 2.399e-05): 63.84 ± 2.1 mN/m
- surface tension liquid-gas (m1 = 3.388e-05): 60.78 ± 2.1 mN/m
- surface tension liquid-gas (m1 = 3.715e-05): 59.62 ± 2.1 mN/m
- surface tension liquid-gas (m1 = 7.413e-05): 53.71 ± 2.1 mN/m
- surface tension liquid-gas (m1 = 0.0001122): 49.75 ± 2.1 mN/m
- surface tension liquid-gas (m1 = 0.0001514): 47 ± 2.1 mN/m
- surface tension liquid-gas (m1 = 0.0001905): 45.13 ± 2.1 mN/m
- surface tension liquid-gas (m1 = 0.000263): 41.95 ± 2.1 mN/m
- surface tension liquid-gas (m1 = 0.0003715): 39.03 ± 2.1 mN/m
- surface tension liquid-gas (m1 = 0.0005248): 35.86 ± 2.1 mN/m
- surface tension liquid-gas (m1 = 0.0007413): 33.29 ± 2 mN/m
- electrical conductivity (m1 = 7.59e-05): 0.00088 ± 8.8e-05 S/m
- electrical conductivity (m1 = 0.0001518): 0.00161 ± 0.00016 S/m
- electrical conductivity (m1 = 0.000235): 0.0023 ± 0.00023 S/m
- electrical conductivity (m1 = 0.0003035): 0.00316 ± 0.00032 S/m
- electrical conductivity (m1 = 0.0004553): 0.00439 ± 0.00044 S/m
- electrical conductivity (m1 = 0.000535): 0.00496 ± 0.0005 S/m
- electrical conductivity (m1 = 0.000607): 0.00573 ± 0.00057 S/m
- electrical conductivity (m1 = 0.0007588): 0.00697 ± 0.0007 S/m
- electrical conductivity (m1 = 0.000835): 0.00758 ± 0.00076 S/m
- electrical conductivity (m1 = 0.0009105): 0.00827 ± 0.00083 S/m
- electrical conductivity (m1 = 0.001062): 0.00937 ± 0.00094 S/m

From the NIST ThermoML archive (doi:10.1021/acs.jced.5b00778)
